Laboratory results as given in patent US10913727B2, “Modulators of the integrated stress pathway” (Calico Life Sciences LLC, priority 2016, dated 2021).

System: HEK293T cells carrying the ATF4 luciferase reporter
Experiment: ATF4-Luc assay, in vitro model of Vanishing Cell White Matter Disease (VWMD)
Format: cell-based
Details: Homo sapiens, HEK-293T, 1 μg/mL tunicamycin, 7 hours, One Glo luminescence
In short: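 Compound at 200 nM and tunicamycin at 1 μg/mL were given together for 7 h to HEK293T cells stably transduced with an ATF4 5′-UTR-driven firefly luciferase reporter. Read-out by luminescence, reported as EC50.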

Structure (SMILES) | EC50
O=C(COc1ccc(Cl)c(F)c1)NC12CC(NC(=O)c3ccc4ncccc4n3)(C1)C2 [Compound 658, N-{3-[2-(4-chloro-3-fluorophenoxy)acetamido]bicyclo[1.1.1]pentan-1-yl}-1,5-naphthyridine-2-carboxamide] | 50 to 250 nM
O=C(COc1ccc(Cl)c(F)c1)NC12CC(NC(=O)c3cccnc3)(C1)C2 [Compound 130, N-{3-[2-(4-chloro-3-fluorophenoxy)acetamido]bicyclo[1.1.1]pentan-1-yl}pyridine-3-carboxamide] | 50 to 250 nM
O=C(COc1ccc(Cl)c(F)c1)NC12CC(Nc3nccn4nccc34)(C1)C2 [Compound 722, 2-(4-chloro-3-fluorophenoxy)-N-{3-[(pyrazolo[1,5-a]pyrazin-4-yl)amino]bicyclo[1.1.1]pentan-1-yl}acetamide] | 50 to 250 nM
CC(C)(C)c1nc(C(=O)NC23CCC(NC(=O)COc4ccc(Cl)c(F)c4)(CC2)C(O)C3)co1 (stereo not shown) [Compound 629, 2-tert-butyl-N-{4-[2-(4-chloro-3-fluorophenoxy)acetamido]-3-hydroxybicyclo[2.2.2]octan-1-yl}-1,3-oxazole-4-carboxamide] | 250 to 1000 nM
CCc1ccnc(C(=O)NC23CC(NC(=O)COc4ccc(Cl)c(Cl)c4)(C2)C3)c1 [Compound 696, N-{3-[2-(3,4-dichlorophenoxy)acetamido]bicyclo[1.1.1]pentan-1-yl}-4-ethylpyridine-2-carboxamide] | 50 to 250 nM
NS(=O)(=O)c1cccc(C(=O)NC23CC(NC(=O)COc4ccc(Cl)c(F)c4)(C2)C3)c1 [Compound 768, N-{3-[2-(4-chloro-3-fluorophenoxy)acetamido]bicyclo[1.1.1]pentan-1-yl}-3-sulfamoylbenzamide] | > 2000 nM
Cc1nn(C)c2sc(C(=O)NC34CC(NC(=O)COc5ccc(Cl)c(F)c5)(C3)C4)cc12 [Compound 878, N-{3-[2-(4-chloro-3-fluorophenoxy)acetamido]bicyclo[1.1.1]pentan-1-yl}-1,3-dimethyl-1H-thieno[2,3-c]pyrazole-5-carboxamide] | 250 to 1000 nM
Cc1cc(C(=O)NC23CCC(NC(=O)COc4ccc(Cl)c(F)c4)(CC2)CC3)on1 [Compound 444, N-{4-[2-(4-chloro-3-fluorophenoxy)acetamido]bicyclo[2.2.2]octan-1-yl}-3-methyl-1,2-oxazole-5-carboxamide] | > 2000 nM
O=C(COc1ccc(Cl)c(F)c1)NC12CC(NC(=O)c3cc4nccnc4s3)(C1)C2 [Compound 886, N-{3-[2-(4-chloro-3-fluorophenoxy)acetamido]bicyclo[1.1.1]pentan-1-yl}thieno[2,3-b]pyrazine-6-carboxamide] | 250 to 1000 nM
O=C(COc1ccc(Cl)c(F)c1)NC12CC(NC(=O)c3cnc4[nH]ccc4c3)(C1)C2 [Compound 746, N-{3-[2-(4-chloro-3-fluorophenoxy)acetamido]bicyclo[1.1.1]pentan-1-yl}-1H-pyrrolo[2,3-b]pyridine-5-carboxamide] | 50 to 250 nM
O=C(COc1ccc(Cl)c(F)c1)NC12CCC(NC(=O)c3csc(C(F)(F)F)n3)(CC1)CC2O (stereo not shown) [Compound 466, N-{4-[2-(4-chloro-3-fluorophenoxy)acetamido]-3-hydroxybicyclo[2.2.2]octan-1-yl}-2-(trifluoromethyl)-1,3-thiazole-4-carboxamide] | < 50 nM
O=C(COc1ccc(Cl)c(F)c1)NC12CCC(NC(=O)c3cc(C(F)(F)F)no3)(CC1)C[C@@H]2O [Compound 704, N-{(3S)-4-[2-(4-chloro-3-fluorophenoxy)acetamido]-3-hydroxybicyclo[2.2.2]octan-1-yl}-3-(trifluoromethyl)-1,2-oxazole-5-carboxamide] | < 50 nM
O=C(COc1ccc(Cl)c(F)c1)NC12CC(NC(=O)c3cc(C4CC4)on3)(C1)C2 [Compound 256, N-{3-[2-(4-chloro-3-fluorophenoxy)acetamido]bicyclo[1.1.1]pentan-1-yl}-5-cyclopropyl-1,2-oxazole-3-carboxamide] | 250 to 1000 nM
O=C(COc1ccc(Cl)c(F)c1)NC12CCC(NC(=O)c3ccccn3)(CC1)C[C@@H]2O [Compound 727, N-{(3S)-4-[2-(4-chloro-3-fluorophenoxy)acetamido]-3-hydroxybicyclo[2.2.2]octan-1-yl}pyridine-2-carboxamide] | < 50 nM
CCc1ncc(C(=O)NC23CC(NC(=O)COc4ccc(Cl)c(F)c4)(C2)C3)s1 [Compound 292, N-{3-[2-(4-chloro-3-fluorophenoxy)acetamido]bicyclo[1.1.1]pentan-1-yl}-2-ethyl-1,3-thiazole-5-carboxamide] | 50 to 250 nM
O=C(COc1ccc(Cl)c(F)c1)NC12CC(Nc3cncc(C4CC4)n3)(C1)C2 [Compound 714, 2-(4-chloro-3-fluorophenoxy)-N-{3-[(6-cyclopropylpyrazin-2-yl)amino]bicyclo[1.1.1]pentan-1-yl}acetamide] | 250 to 1000 nM
O=C(COc1ccc(Cl)c(F)c1)NC12CC(NC(=O)c3cc4ccccc4o3)(C1)C2 [Compound 317, N-{3-[2-(4-chloro-3-fluorophenoxy)acetamido]bicyclo[1.1.1]pentan-1-yl}-1-benzofuran-2-carboxamide] | < 50 nM

Structure (SMILES) | EC50
O=C(COc1ccc(Cl)c(F)c1)NC12CC(NC(=O)c3ccc(C(F)(F)F)cn3)(C1)C2 [Compound 120, N-{3-[2-(4-chloro-3-fluorophenoxy)acetamido]bicyclo[1.1.1]pentan-1-yl}-5-(trifluoromethyl)pyridine-2-carboxamide] | 50 to 250 nM
O=C(COc1ccc(Cl)c(F)c1)NC12CCC(NC(=O)c3cn4ccccc4n3)(CC1)CC2O (stereo not shown) [Compound 601, N-{4-[2-(4-chloro-3-fluorophenoxy)acetamido]-3-hydroxybicyclo[2.2.2]octan-1-yl}imidazo[1,2-a]pyridine-2-carboxamide] | 250 to 1000 nM
COc1cc(C(=O)NC23CCC(NC(=O)COc4ccc(Cl)c(F)c4)(C2)C3)on1 [Compound 707, N-{4-[2-(4-chloro-3-fluorophenoxy)acetamido]bicyclo[2.1.1]hexan-1-yl}-3-methoxy-1,2-oxazole-5-carboxamide] | 250 to 1000 nM
Cc1nc(C(=O)NC23CCC(NC(=O)COc4ccc(Cl)c(F)c4)(CC2)C(O)C3)nn1C (stereo not shown) [Compound 657, N-{4-[2-(4-chloro-3-fluorophenoxy)acetamido]-3-hydroxybicyclo[2.2.2]octan-1-yl}-1,5-dimethyl-1H-1,2,4-triazole-3-carboxamide] | > 2000 nM
O=C(COc1ccc(Cl)c(F)c1)NC12CC(NC(=O)c3ccco3)(C1)C2 [Compound 304, N-{3-[2-(4-chloro-3-fluorophenoxy)acetamido]bicyclo[1.1.1]pentan-1-yl}furan-2-carboxamide] | 250 to 1000 nM
Cc1nccnc1NC12CC(NC(=O)COc3ccc(Cl)c(F)c3)(C1)C2 [Compound 678, 2-(4-chloro-3-fluorophenoxy)-N-{3-[(3-methylpyrazin-2-yl)amino]bicyclo[1.1.1]pentan-1-yl}acetamide] | 1000 to 2000 nM
O=C(COc1ccc(Cl)c(F)c1)NC12CC(NC(=O)c3ccnnc3)(C1)C2 [Compound 762, N-{3-[2-(4-chloro-3-fluorophenoxy)acetamido]bicyclo[1.1.1]pentan-1-yl}pyridazine-4-carboxamide] | > 2000 nM
O=C(COc1ccc(Cl)c(F)c1)NC12CCC(NC(=O)c3cn[nH]c3)(CC1)C(O)C2 (stereo not shown) [Compound 214, N-{4-[2-(4-chloro-3-fluorophenoxy)acetamido]-2-hydroxybicyclo[2.2.2]octan-1-yl}-1H-pyrazole-4-carboxamide] | > 2000 nM
CCOc1ccccc1C(=O)NC12CC(NC(=O)COc3ccc(Cl)c(F)c3)(C1)C2 [Compound 538, N-{3-[2-(4-chloro-3-fluorophenoxy)acetamido]bicyclo[1.1.1]pentan-1-yl}-2-ethoxybenzamide] | < 50 nM
Cc1cccc(C(=O)NC23CC(NC(=O)COc4ccc(Cl)c(F)c4)(C2)C3)c1 [Compound 535, N-{3-[2-(4-chloro-3-fluorophenoxy)acetamido]bicyclo[1.1.1]pentan-1-yl}-3-methylbenzamide] | 50 to 250 nM
O=C(COc1ccc(Cl)c(F)c1)NC12CCC(NC(=O)c3cnc(C(F)F)cn3)(CC1)C(O)C2 (stereo not shown) [Compound 195, N-{4-[2-(4-chloro-3-fluorophenoxy)acetamido]-2-hydroxybicyclo[2.2.2]octan-1-yl}-5-(difluoromethyl)pyrazine-2-carboxamide] | < 50 nM
Cc1cnc(C(=O)NC23CCC(NC(=O)COc4ccc(Cl)c(F)c4)(CC2)CC3O)cn1 (stereo not shown) [Compound 220, N-{4-[2-(4-chloro-3-fluorophenoxy)acetamido]-2-hydroxybicyclo[2.2.2]octan-1-yl}-5-methylpyrazine-2-carboxamide] | 50 to 250 nM
O=C(COc1ccc(Cl)c(F)c1)NC12CC(Nc3nccc(-c4ccccc4)n3)(C1)C2 [Compound 363, 2-(4-chloro-3-fluorophenoxy)-N-{3-[(4-phenylpyrimidin-2-yl)amino]bicyclo[1.1.1]pentan-1-yl}acetamide] | 1000 to 2000 nM
O=C(COc1ccc(Cl)c(Cl)c1)NC12CC(NC(=O)c3csc(C(F)(F)F)n3)(C1)C2 [Compound 676, N-{3-[2-(3,4-dichlorophenoxy)acetamido]bicyclo[1.1.1]pentan-1-yl}-2-(trifluoromethyl)-1,3-thiazole-4-carboxamide] | < 50 nM
Cc1cc2c(NC34CC(NC(=O)COc5ccc(Cl)c(Cl)c5)(C3)C4)nccn2n1 [Compound 494, 2-(3,4-dichlorophenoxy)-N-{3-[(2-methylpyrazolo[1,5-a]pyrazin-4-yl)amino]bicyclo[1.1.1]pentan-1-yl}acetamide] | < 50 nM
O=C(COc1ccc(Cl)c(F)c1)NC12CC(Nc3ccc(C(F)(F)F)cn3)(C1)C2 [Compound 103, 2-(4-chloro-3-fluorophenoxy)-N-(3-{[5-(trifluoromethyl)pyridin-2-yl]amino}bicyclo[1.1.1]pentan-1-yl)acetamide] | 1000 to 2000 nM
O=C(COc1ccc(Cl)cc1)NC12CC(NC(=O)c3ccc(OC(F)(F)F)nc3)(C1)C2 [Compound 570, N-{3-[2-(4-chlorophenoxy)acetamido]bicyclo[1.1.1]pentan-1-yl}-6-(trifluoromethoxy)pyridine-3-carboxamide] | 50 to 250 nM
